Earlier results on 1 molecule are cited in US20250312278A1, “BRIVARACETAM PHARMACEUTICAL COMPOSITION, PREPARATION METHOD THEREFOR AND USE THEREOF” (SHANGHAI BOCIMED PHARMACEUTICAL CO., LTD., priority 2020, published 2025).

By solubility is commonly meant the concentration that dissolves in the medium under given conditions.

≈ marks a conversion by molar mass, not a printed value. Where two headings read alike, the source gives them in different places.

For series [1] the following is noted: in vivo.

Consider `CCC[C@@H]1CC(=O)N(C(CC)C(N)=O)C1` (stereo partly drawn) [Brivaracetam, (2S)-2-[(4R)-2-oxo-4-propyltetrahydron-1H-pyrro-1-yl] butanamide], for which the solubility was 850 mg/mL (≈ 4000 mM) (buffer solution with a pH of 4.5), 840 mg/mL (≈ 3960 mM) (buffer solution with a pH of 7.4), 850 mg/mL (≈ 4000 mM) (hydrochloric acid solution with a pH of 1.2) and 700 mg/mL (≈ 3300 mM) (water). The terminal half-life period in series [1] is 9 h.
